Experimental data taken from patent publication US4537894A, “Methods of using compositions having antithrombotic and anti-blood-platelet-aggregating activity” (priority 1978, dated 1985).
“Also recorded” adds a separate entry of the source. Counter-ions that a name gives are not always drawn.

What was measured:
Mongrel dogs = experiment: survival on the 7th day after adrenalin infusion; format: in vivo; conditions: for number of animals that survived on the 7th day after adrenalin infusion: oral, twice a day, 4 days, control 2/5; for survival time, in words: adrenalin infusion, dogs
Protocol: (§1) This investigation concerned myocardial necrosis induced in animals under severe stress conditions which may be reproduced by infusion of adrenalin.
(§2) Mongrel dogs of either sex, weighing about 10 kg, were distributed into groups of 5 animals each: except for one group of untreated dogs (controls, Group 1), the other groups were orally administered the test material, twice a day, for 4 days, repsectively:
(§3) Eighteen hours after the last treatment the dogs were anesthetized with phenobarbital (25 mg/kg, i.v.); a catheter was placed in the femoral artery, the blood pressure was recorded via a STAHAM P 23 GD sensor and the ECG was recorded (D1 and D2) with a RACIA polygraph. The adrenalin was infused by the cephalic route at a dosage of 4 μg/kg/mn at a rate of 2 ml/mn for 4 hours.
(§4) The animals were freed from the catheters and were allowed to wake up. The animals which survived 7 days later were sacrificed and autopsied; the hearts were cut out and examined macroscopically prior to taking samples for histological examination. Any macroscopic anomalies are rated according to the following code (Table II) which was established arbitrarily and which takes into account the extent of the damages (p.9).
The number of animals that survived on the 7th day after adrenalin infusion is reported below: […]

[1] = test system: blood platelets (collagen-induced aggregation); experiment: collagen-induced blood-platelet aggregation after oral treatment; format: in vivo, Wistar rats; conditions: Rattus norvegicus, read-out: Percent Inhibition, Collagen
Protocol: Blood was taken from the jugular vein of Wistar rats. […] 0.4 ml plasma is placed in a siliconized tube provided with a magnet bar which is also siliconized. The tube is introduced into an aggregometer coupled with an apparatus which records the optical density variations. […] Blood-platelet-aggregation produces then an increase of light transmission followed by a decrease subsequent to the deaggregation phase. The maximum optical density variation thus determined characterizes the intensity of the aggregation. (b) Determination of collagen-induced blood-platelet-aggregation The A.D.P. solution is substituted with a collagen solution (bovine tendon extract).

myocardial necrosis = experiment: adrenalin-induced myocardial necrosis, macroscopic lesions; format: in vivo, Mongrel dogs; conditions: for Macroscopic Lesions, necrosis score: oral, twice a day, 4 days, control 18.0; for necrosis / macroscopic lesions, in words: adrenalin infusion, dogs, vs controls
Protocol: as §1, §3, §4

blood platelets = experiment: blood-platelet count before and after adrenalin infusion; format: in vivo, Mongrel dogs; conditions: for Blood-platelet count, change prior to and after adrenalin infusion: oral, twice a day, 4 days, controls 32.4% decrease; for number of blood-platelets, in words: adrenalin infusion, dogs
Protocol: as §1, §2, §3
Arterial blood samples were taken before and after the end of the infusion, to effect the blood-platelet counts.

[2] = test system: blood platelets (A.D.P. induced aggregation); experiment: A.D.P. induced blood-platelet aggregation after oral treatment; format: in vivo, Wistar rats; conditions: Rattus norvegicus, read-out: Percent Inhibition, A.D.P.
Protocol: Blood was taken from the jugular vein of Wistar rats. […] (a) Determination of A.D.P. induced blood-platelet aggregation 0.4 ml plasma is placed in a siliconized tube provided with a magnet bar which is also siliconized. The tube is introduced into an aggregometer coupled with an apparatus which records the optical density variations. When light transmission has reached a stable value, 0.5 ml of a solution containing 10μ M A.D.P. (adenosine-di-phosphate) is added to the tube. Blood-platelet-aggregation produces then an increase of light transmission followed by a decrease subsequent to the deaggregation phase. The maximum optical density variation thus determined characterizes the intensity of the aggregation.

[3] = acute toxicity, LD50, mice; conditions: mouse, in vivo
[4] = acute toxicity, LD50, rats; conditions: rat, in vivo
[5] = test system: platelet aggregation (collagen); conditions: Packham et al 1967; cited from earlier work
[6] = test system: platelet aggregation (antigen-antibody complexes); conditions: Packham et al 1967; cited from earlier work
platelet = conditions: in man; Goodman and Gilman 1975; cited from earlier work
[7] = acute toxicity, LD50, rabbits; conditions: rabbit, in vivo, iv, Miller & Tainter method, read-out: LD50 /24 hrs/kg body weight
Description: The tests carried out concerned:

[8] = Group 2: 50 mg/kg ticlopidine hydrochloride
[9] = Group 3: 100 mg/kg ticlopidine hydrochloride
[10] = Group 4: 20 mg/kg sulfinpyrazone
[11] = Group 5: 40 mg/kg sulfinpyrazone
[12] = Group 4: 10 mg/kg sulfinpyrazone, oral, 3 hours after treatment, vs control
[13] = Group 5: 20 mg/kg sulfinpyrazone, oral, 3 hours after treatment, vs control

## Clc1ccccc1CN1CCc2sccc2C1 [ticlopidine hydrochloride, 5-(2-chloro-benzyl)-4,5,6,7-tetrahydro-thieno[3,2-c]pyridine]
Mongrel dogs; [8]
  number of animals that survived on the 7th day after adrenalin infusion: 3/5
Mongrel dogs; [9]
  number of animals that survived on the 7th day after adrenalin infusion: 4/5
Mongrel dogs
  survival time, in words: improves the survival time
[1]; po, 3 h
  inhibition at 25 mg/kg: 48.6%
  inhibition at 50 mg/kg: 58.3%
Myocardial necrosis; [8]
  Macroscopic Lesions, necrosis score: 6.8
Myocardial necrosis; [9]
  Macroscopic Lesions, necrosis score: 4.8
Myocardial necrosis
  necrosis / macroscopic lesions, in words: significant protection against myocardia necrosis
Blood platelets; [8]
  Blood-platelet count, change prior to and after adrenalin infusion: +14%
Blood platelets; [9]
  Blood-platelet count, change prior to and after adrenalin infusion: +13.2%
Blood platelets
  number of blood-platelets, in words: increases the number of blood-platelets
[2]; po, 3 h
  inhibition at 25 mg/kg: 28.5%
  inhibition at 50 mg/kg: 40.6%

## O=C1C(CC[S+]([O-])c2ccccc2)C(=O)N(c2ccccc2)N1c1ccccc1 (stereo not shown) [sulfinpyrazone, 1,2-diphenyl-(2'-phenylsulfinyl-ethyl)pyrazolidine-3,5-dione]
[3]; iv
  LD50 at 24 h: 240 mg/kg
[3]; po
  LD50 at 24 h: 298 mg/kg
[4]; iv
  LD50 at 24 h: 154 mg/kg
[4]; po
  LD50 at 24 h: 375 mg/kg
Mongrel dogs; [10]
  number of animals that survived on the 7th day after adrenalin infusion: 2/5
Mongrel dogs; [11]
  number of animals that survived on the 7th day after adrenalin infusion: 2/5
Mongrel dogs
  survival time, in words: no effect
[5]
  platelet aggregation in response to collagen: blocks platelet aggregation
[1]; [12]
  inhibition at 10 mg/kg: 12.7%
[1]; [13]
  inhibition at 20 mg/kg: 20.5%
Myocardial necrosis; [10]
  Macroscopic Lesions, necrosis score: 18.2
Myocardial necrosis; [11]
  Macroscopic Lesions, necrosis score: 17.4
Myocardial necrosis
  necrosis / macroscopic lesions, in words: substantially identical with those of the controls; also recorded: no effect
Blood platelets; [10]
  Blood-platelet count, change prior to and after adrenalin infusion: -12%
Blood platelets; [11]
  Blood-platelet count, change prior to and after adrenalin infusion: -7%
Blood platelets
  number of blood-platelets, in words: no effect
[6]
  platelet aggregation in response to antigen-antibody complexes: blocks platelet aggregation
platelet
  platelet survival: prolongs platelet survival
[7]
  LD50 at 24 h: 195 mg/kg
[2]; [12]
  inhibition at 10 mg/kg: 8.7%
[2]; [13]
  inhibition at 20 mg/kg: 14.1%
